# Like-named read-outs stand apart in the source and are kept apart here.
# Tests used:
# [1] = parameters: method as in Glatt et al. [2012]; conditions: in water at 37 °C; ref Glatt et al. [2012]; cited from earlier work
# [2] = biological target: T1, hSULT1A1 (Homo sapiens, UniProt P50225); conditions: cited from earlier work; for K M of sulfoconjugation: ref Honma et al. [2001]
# T1 construct: made in house; host or cells: Salmonella typhimurium TA1538 (cytosolic fraction, not purified)
# [3] = Stability of SMF in solution; type: physicochemical; conditions: solutions containing 75 % 2-propanol at 4 °C, within four weeks
# Procedure: The analytical technique used in this study was adapted from the SMF quantification in plasma samples of HMF-treated mice (Monien et al. [2009]). This is beset with two potential sources of inaccuracy. […] Here, we chose a reaction time of 30 min. […] SMF was analyzed by UPLC-MS/MS in the MRM mode using the specific fragmentation reactions of the sulfate ion radical (m/z = 204.9 → 96.0) and the protonated sulfonate ion (m/z = 204.9 → 81.0) (Monien et al. [2009]). Representative chromatograms are shown in Fig. S2 of the Supplementary Material. The SMF levels resulting from HMF sulfoconjugation were quantified using SMF solutions at various concentrations as external calibration line prepared in water/2-propanol (1:3), which represents the solvent composition in the incubation mixture following instant stopping and precipitating of proteins. The second source of imprecision of mass spectrometric SMF quantification with an external calibration is the possible ion suppression by residues from bacterial cytosol or buffer salts in the samples. This was tested in a separate experiment measuring the peak areas of six series of solutions with five different SMF concentrations, either prepared with water or with the contents of the incubation mixture including 1 mg/ml protein from a cytosolic preparation of native S. typhimurium TA1538.
# [4] = parameters: method as in Monien et al. [2009]; conditions: ref Monien et al. [2009], cited from earlier work
# T1 sequence (P50225 whole entry): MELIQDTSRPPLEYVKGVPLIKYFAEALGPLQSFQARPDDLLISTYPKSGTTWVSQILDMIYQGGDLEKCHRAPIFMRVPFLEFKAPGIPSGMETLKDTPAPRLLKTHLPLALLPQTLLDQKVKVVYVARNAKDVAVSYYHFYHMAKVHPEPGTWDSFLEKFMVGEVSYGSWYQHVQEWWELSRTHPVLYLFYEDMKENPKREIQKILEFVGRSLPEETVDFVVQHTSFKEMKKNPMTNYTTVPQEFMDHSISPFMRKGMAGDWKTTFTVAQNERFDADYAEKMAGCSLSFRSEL
compound,measurement,setting,value
O=S(=O)(O)OCc1ccco1 [2-sulfoxymethylfuran],t 1/2,[1],20 s
COc1cc2c(CCNC(C)=O)c[nH]c2cc1O [6-hydroxymelatonin],K M of sulfoconjugation,[2],18 µM
"O=Cc1ccc(COS(=O)(=O)O)o1 [SMF, 5-sulfoxymethylfurfural]",stability,[3],without any detectable degradation
same,half-life,[4]; in plasma at 37 °C,1.8 h
same,half-life,[4]; in urine at 37 °C,2.1 h
same,half-life,[4]; in water at 37 °C,1.9 h
NCCc1ccc(O)c(O)c1 [dopamine],K M of sulfoconjugation,[2],130 µM
O=[N+]([O-])c1ccc(O)cc1 [p-nitrophenol],K M of sulfoconjugation,[2],3.0 µM
CC(=O)Nc1ccc(O)cc1 [paracetamol],K M of turnover,[2]; ref Adjei et al. [2008],2400 µM

# Source: publication PMC4710668, “Bioactivation of food genotoxicants 5-hydroxymethylfurfural and furfuryl alcohol by sulfotransferases from human, mouse and rat: a comparative study” (Archives of Toxicology, 2014)
